The source of these data is patent US20240025906A1 (NEURON23, INC., priority 2022, published 2024).

For assay [1], the system named is JAK1/TYK2 pSTAT5 (Tyr694/699) in THP-1 cell line. The assay is described as follows: IFNa-stimulated JAK1/TYK2 pSTAT5 (Tyr694/699) inhibition cellular assay, AlphaLISA. The class given is cell-based. Particulars: Homo sapiens; THP-1 cells, IFNa-stimulated, AlphaLISA (Assay B); read-out: Cellular_THP1_IFNa-pSTATS_TYK2. Put shortly: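 An eight-point 6-fold titration of compound (0.04–10000 nM final) is given to THP-1 cells for 1 h before 30 min of IFNa exposure. Phospho-STAT5 is read by AlphaLISA at 615 nm. IC50 values are derived by logistic regression with bottom set to 0 and Hill slope set to −1.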
In general terms: In Alpha technology, singlet oxygen from a donor bead excites a nearby acceptor bead.

A further assay concerns the target T1, TYK2 JH2 (Homo sapiens, UniProt P29597).
T1 construct: purchased DiscoverX (KINOMEscan KdELECT service); host or cells: E. coli BL21-derived (T7 phage display) or HEK-293
The assay is described as follows: TYK2 JH2 binding assay (KINOMEscan KdELECT competitive binding). The conditions noted are these: TYK2 JH2 domain, KINOMEscan KdELECT (Assay A); read-out: Biochemical TYK2_DiscoverX_JH2_BND_Kd. In short, it runs like this: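 JH2-domain fragment, expressed as T7 phage tag in BL21-derived E. coli or DNA-tagged from HEK-293, competed with test compound against bead-immobilized biotinylated ligand in binding buffer (0.9% DMSO). 1 h shaking at room temperature; bound kinase eluted with 0.5 μM free ligand and quantified by qPCR. Kd from 11-point 3-fold dilutions.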

T1 sequence (P29597 589-875 limits assumed): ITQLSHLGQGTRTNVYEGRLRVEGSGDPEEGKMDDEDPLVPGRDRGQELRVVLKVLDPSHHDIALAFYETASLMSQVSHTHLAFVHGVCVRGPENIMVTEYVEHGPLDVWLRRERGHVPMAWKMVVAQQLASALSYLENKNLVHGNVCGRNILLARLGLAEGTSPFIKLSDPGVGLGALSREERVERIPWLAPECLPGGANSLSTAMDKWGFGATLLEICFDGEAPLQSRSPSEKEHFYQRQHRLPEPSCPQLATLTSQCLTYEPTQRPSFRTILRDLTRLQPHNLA

Consider `CNc1ncc(C#Cc2cc3c(cc2C)nnn3C)c2cc(NC(=O)C3CC3)ncc12` [Example 700, N-(5-((1,5-dimethyl-1H-benzo[d][1,2,3]triazol-6-yl)ethynyl)-8-(methylamino)-2,7-naphthyridin-3-yl)cyclopropanecarboxamide], for which the IC50 in assay [1] was at most 500 nM. In addition, the Kd at TYK2 JH2 is at most 100 nM.

`CNc1ncc(C#Cc2ccc(OCC3(C)COC3)cc2)c2cc(NC(=O)C3CC3)ncc12` [Example 701, N-(8-(methylamino)-5-((4-((3-methyloxetan-3-yl)methoxy)phenyl)ethynyl)-2,7-naphthyridin-3-yl)cyclopropanecarboxamide]: in assay [1], the IC50 is at most 500 nM. Besides, the Kd on TYK2 JH2 is at most 100 nM.

Consider `CNc1ncc(C#Cc2ccc(OCC3CCO3)cc2)c2cc(NC(=O)C3CC3)ncc12` (stereo not shown) [Example 702, N-(8-(methylamino)-5-((4-(oxetan-2-ylmethoxy)phenyl)ethynyl)-2,7-naphthyridin-3-yl)cyclopropanecarboxamide], for which the IC50 in assay [1] is at most 500 nM. In addition, on TYK2 JH2, the Kd was at most 100 nM.

`CNc1ncc(C#Cc2ccc(OC[C@@H](C)OC)cc2)c2cc(NC(=O)C3CC3)ncc12` [Example 703, (R)—N-(5-((4-(2-methoxypropoxy)phenyl)ethynyl)-8-(methylamino)-2,7-naphthyridin-3-yl)cyclopropanecarboxamide]: the IC50 in assay [1] was at most 500 nM. For the same molecule, the Kd at TYK2 JH2 was at most 100 nM.

Regarding `CNc1ncc(C#Cc2ccc(OC[C@H](C)OC)cc2)c2cc(NC(=O)C3CC3)ncc12` [Example 704, (S)—N-(5-((4-(2-methoxypropoxy)phenyl)ethynyl)-8-(methylamino)-2,7-naphthyridin-3-yl)cyclopropanecarboxamide], the IC50 in assay [1] is at most 500 nM. Further, the Kd at TYK2 JH2 was at most 100 nM.

As for `CNc1ncc(C#Cc2ccc(OC3CN(C(C)=O)C3)cc2)c2cc(NC(=O)C3CC3)ncc12` [Example 705, N-(5-((4-((1-acetylazetidin-3-yl)oxy)phenyl)ethynyl)-8-(methylamino)-2,7-naphthyridin-3-yl)cyclopropanecarboxamide], in assay [1], the IC50 is at most 500 nM. The Kd on TYK2 JH2 is at most 100 nM.

For the molecule `CNc1ncc(C#Cc2ccc(OC3(C)COC3)cc2)c2cc(NC(=O)C3CC3)ncc12` [Example 706, N-(8-(methylamino)-5-((4-((3-methyloxetan-3-yl)oxy)phenyl)ethynyl)-2,7-naphthyridin-3-yl)cyclopropanecarboxamide], the IC50 in assay [1] was at most 500 nM. Also, on TYK2 JH2, the Kd was at most 100 nM.

As for `CNc1ncc(C#Cc2ccc(OC3COC3)cc2)c2cc(NC(=O)C3CC3)ncc12` [Example 707, N-(8-(methylamino)-5-((4-(oxetan-3-yloxy)phenyl)ethynyl)-2,7-naphthyridin-3-yl)cyclopropanecarboxamide], the IC50 in assay [1] was at most 500 nM. In addition, on TYK2 JH2, the Kd was at most 100 nM.

For `CNc1ncc(C#Cc2ccc(N3CCO[C@H](C)C3)cc2)c2cc(NC(=O)C3CC3)ncc12` [Example 708, (R)—N-(8-(methylamino)-5-((4-(2-methylmorpholino)phenyl)ethynyl)-2,7-naphthyridin-3-yl)cyclopropanecarboxamide], the IC50 in assay [1] was at most 500 nM. In addition, the Kd on TYK2 JH2 was at most 100 nM.

For `CNc1ncc(C#Cc2ccc(N3CCO[C@@H](C)C3)cc2)c2cc(NC(=O)C3CC3)ncc12` [Example 709, (S)—N-(8-(methylamino)-5-((4-(2-methylmorpholino)phenyl)ethynyl)-2,7-naphthyridin-3-yl)cyclopropanecarboxamide], the IC50 in assay [1] was at most 500 nM. Moreover, the Kd on TYK2 JH2 is at most 100 nM.

In the case of `CNc1ncc(C#Cc2ccc(OCC(C)(C)C#N)cc2)c2cc(NC(=O)C3CC3)ncc12` [Example 710, N-(5-((4-(2-cyano-2-methylpropoxy)phenyl)ethynyl)-8-(methylamino)-2,7-naphthyridin-3-yl)cyclopropanecarboxamide], the IC50 in assay [1] is at most 500 nM. For the same molecule, on TYK2 JH2, the Kd is at most 100 nM.

`CNc1ncc(C#Cc2ccc(Oc3ncn(C)n3)cc2)c2cc(NC(=O)C3CC3)ncc12` [Example 711, N-(5-((4-((1-methyl-1H-1,2,4-triazol-3-yl)oxy)phenyl)ethynyl)-8-(methylamino)-2,7-naphthyridin-3-yl)cyclopropanecarboxamide]: the IC50 in assay [1] is at most 500 nM. Further, the Kd on TYK2 JH2 was at most 100 nM.

Consider `CNc1ncc(C#Cc2ccc(OCC3CN(C)C3)cc2)c2cc(NC(=O)C3CC3)ncc12` [Example 712, N-(8-(methylamino)-5-((4-((1-methylazetidin-3-yl)methoxy)phenyl)ethynyl)-2,7-naphthyridin-3-yl)cyclopropanecarboxamide], for which the IC50 in assay [1] was at most 500 nM. Further, on TYK2 JH2, the Kd was at most 100 nM.

Regarding `CNc1ncc(C#Cc2ccc(OC(C)CC3COC3)cc2)c2cc(NC(=O)C3CC3)ncc12` (stereo not shown) [Example 713, N-(8-(methylamino)-5-((4-((1-(oxetan-3-yl)propan-2-yl)oxy)phenyl)ethynyl)-2,7-naphthyridin-3-yl)cyclopropanecarboxamide], the IC50 in assay [1] was at most 500 nM. Further, at TYK2 JH2, the Kd is at most 100 nM.

Turning to `CNc1ncc(C#Cc2ccc(OCC(C)(C)O)cc2)c2cc(NC(=O)C3CC3)ncc12` [Example 714, N-(5-((4-(2-hydroxy-2-methylpropoxy)phenyl)ethynyl)-8-(methylamino)-2,7-naphthyridin-3-yl)cyclopropanecarboxamide], in assay [1], the IC50 is at most 500 nM. The Kd at TYK2 JH2 was at most 100 nM.

Consider `CNc1ncc(C#Cc2ccc(OC3CN(S(C)(=O)=O)C3)cc2)c2cc(NC(=O)C3CC3)ncc12` [Example 715, N-(8-(methylamino)-5-((4-((1-(methylsulfonyl)azetidin-3-yl)oxy)phenyl)ethynyl)-2,7-naphthyridin-3-yl)cyclopropanecarboxamide], for which the IC50 in assay [1] is at most 500 nM. Also, the Kd on TYK2 JH2 is at most 100 nM.

Consider `CNc1ncc(C#Cc2ccc3cc(COC)n(C)c3c2)c2cc(NC(=O)C3CC3)ncc12` [Example 716, N-(5-((2-(methoxymethyl)-1-methyl-1H-indol-6-yl)ethynyl)-8-(methylamino)-2,7-naphthyridin-3-yl)cyclopropanecarboxamide], for which, in assay [1], the IC50 was at most 500 nM. Besides, the Kd on TYK2 JH2 is at most 100 nM.

`CNc1ncc(C#Cc2ccc3oc(COC)cc3c2)c2cc(NC(=O)C3CC3)ncc12` [Example 717, N-(5-((2-(methoxymethyl)benzofuran-5-yl)ethynyl)-8-(methylamino)-2,7-naphthyridin-3-yl)cyclopropanecarboxamide]: the IC50 in assay [1] was at most 500 nM. At TYK2 JH2, the Kd is at most 100 nM.

Consider `CNc1ncc(C#Cc2cc(F)c(OC)cn2)c2cc(NC(=O)C3CC3)ncc12` [Example 718, N-(5-((4-fluoro-5-methoxypyridin-2-yl)ethynyl)-8-(methylamino)-2,7-naphthyridin-3-yl)cyclopropanecarboxamide], for which the IC50 in assay [1] is at most 500 nM. In addition, the Kd on TYK2 JH2 was at most 100 nM.

Turning to `CNc1ncc(C#Cc2ccc3nc(OC)n(C)c3c2)c2cc(NC(=O)C3CC3)ncc12` [Example 719, N-(5-((2-methoxy-1-methyl-1H-benzo[d]imidazol-6-yl)ethynyl)-8-(methylamino)-2,7-naphthyridin-3-yl)cyclopropanecarboxamide], the IC50 in assay [1] was at most 500 nM. Besides, the Kd at TYK2 JH2 was at most 100 nM.
